{"source": "patent US20090081170A1", "about": "“Cardiac progenitor cells” (priority 2007, published 2009)", "key": {"[1]": {"system": "adult heart explants (adult EPDCs)", "assay": "Adult epicardial explant culture: EPDC outgrowth and differentiation", "type": "cell-based, mouse", "experimental": "A simple protocol for the outgrowth and differentiation of vasculogenic precursor cells (endothelial and vascular smooth muscle cells) from adult heart using Thymosin β4 to stimulate epicardial cell migration is described below.\n• 1. Coat 6-well plates with gelatin: pipette 2 ml 0.1% gelatin solution, allow to stand for 15 minutes and aspirate. Optionally, place coverslips into wells, prior to gelatin coating. • 2. Cull adult mouse by cervical dislocation. • 3. Using sterile forceps and scissors make a lateral incision in the centre of the abdomen and tear back the fur to expose the rib cage. • 4. Carefully cut upwards through the sternum and along the diaphragm, taking care not to cut into the heart. Pull back the ribs to reveal the heart. • 5. Remove the heart using forceps and dissect away the atria and major vessels, to leave right and left ventricles. • 6. Place tissue in a 60 mm tissue culture dish (non gelatin coated) containing 2 ml DPBS. Cut into quarters and allow blood to rinse from the tissue. Carefully aspirate away DPBS. Using a sterile scalpel, cut the heart into pieces of approximately 1 mm^3. Reproducible EPDC outgrowth strongly depends upon the size of the heart pieces (optimally 1 mm^3). Larger pieces will not adhere to permit sufficient migration while smaller pieces tend to dissociate completely and cardiomyocyte death precedes adherence and EPDC outgrowth. • 7. Divide heart pieces into 4 equal portions (1 adult heart is typically divided between 4 wells for optimal EPDC outgrowth). • 8. Pipette 2 ml of EPDC culture medium, supplemented with 100 ng/ml Tβ4, into each well to be used. • 9. Place 1 portion of heart tissue into the centre of each well and ensure that all pieces are submerged. • 10. Gently transfer the plate to a humidified 5% CO2 37° C. incubator. Maintain cultures with minimum disturbance to allow explants to adhere. No feeding is required for the first 72 hours. Minimal disturbance is absolutely essential for EPDC outgrowth. Explants adhere only tenuously in the first instance and disturbance in the first few days of culture will prevent adhesion or lead to detachment. Plates should be transferred extremely cautiously between incubator and microscope or culture hood. After sufficient EPDCs have emerged, explants attach more firmly but care is still required as detachment may easily occur. • 11. After 72 hours in culture, carefully transfer plate to culture hood, wash explants gently with DPBS and add 2 ml fresh EPDC medium containing 100 ng/ml Tβ4. Leave for a further 24 hours before assessment of cellular phenotype.\n• 1. Culture adult heart explants as described above. • 2. After 72 hours of culture, fix cells with 4% PFA for 10 minutes at room temperature. • 3. Wash cells twice with PBS. • 4. Permeabilise cells with 0.5% Triton X-100 in PBS for 5 minutes at room temperature. • 5. Wash cells twice with PBS. • 6. Block non-specific binding by incubating cells in BLOCK (1% BSA/10% sheep serum in PBS) for 1 hour at room temperature. • 7. Incubate cells with an appropriate dilution of primary antibody (epicardin, 1:100; SMalphaA, 1:700; Flk1, 1:100), or Procollagen type I, 1:100), in BLOCK. • 8. Wash cells 3 times using BLOCK. • 9. Incubate cells with the appropriate secondary antibody (epicardin: Cy3-conjugated anti-rabbit; SMalphaA: FITC-conjugated anti-mouse, 1:30; Procollagen type I: Alexa 488-conjugated anti-goat, 1:200; Flk1: Alexa 594-conjugated anti-rat, 1:200) diluted in BLOCK. • 10. Wash cells twice in PBS. • 11. Optionally, to stain nuclei, incubate with 5 ug/ml Hoechst in PBS for 5 minutes at room temperature. • 12. Wash cells twice in PBS. • 13. Mount coverslips onto microscope slides using 50% glycerol in PBS as mountant and visualize using a fluorescence microscope. […]"}, "[2]": {"system": "Tβ4shNk embryo hearts at E14.5", "assay": "AcSDKP intraperitoneal injection into pregnant females, rescue of Tβ4 knockdown embryo hearts", "type": "in vivo, mouse", "details": "E14.5 Tβ4shNk embryos", "from_the_text": "To investigate a role for Tβ4 during heart development and to provide insight into the mechanism by which the peptide mediates adult cardiac repair, we generated mouse embryos with heart-specific Tβ4 deficiency using a novel strategy of transgenic conditional RNA interference (RNAi; as described above). Floxed Tβ4 short hairpin RNA (Tβ4shRNAflox) mice were crossed with two strains of Cre-expressing mice: Nkx2-5^CreKI (designated Tβ4shNk), which directs Cre expression throughout the majority of cardiomyocytes, and MLC2vCreKI (designated Tβ4shMlc), which directs Cre expression specifically to ventricular cardiomyocytes. Tβ4shNk embryos were also observed to have thymic defects consistent not only with Cre expression driven by Nkx2-5 in the developing thymus, but also with the thymus representing an obvious source of Tβ4.\nWe next investigated whether AcSDKP could rescue any of the vasculogenesis defects observed in the Tβ4 mutant hearts. […] This supports our interpretation of the primary phenotype in Tβ4 mutants. AcSDKP lacks actin binding function, rendering it unable to stimulate filamentous actin assembly and lamellipodia-based cell migration and consequently unable to rescue the EPDC defect. […]"}}, "note": "Where a SMILES comes first, the peptide text is derived from it.", "data": [{"smiles": "CC(=O)N[C@@H](CO)C(=O)N[C@@H](CC(=O)O)C(=O)N[C@@H](CCCCN)C(=O)N1CCC[C@H]1C(=O)O", "note": "[AcSDKP, N-acetyl-seryl-aspartyllysyl-proline] (Ac-SDKP-OH)", "values": [{"measurement": "differentiated (Flk1-positive) endothelial cells", "setting": "[1]; adult epicardial explants", "result": "striking increase"}, {"measurement": "smooth muscle cells in treated cultures", "setting": "[1]; adult epicardial explants, data not shown", "result": "only very few smooth muscle cells observed"}, {"measurement": "EPDC outgrowth from adult heart explants", "setting": "[1]; adult mouse heart explants, 8-12 weeks, vs untreated explants", "result": "unable to promote epicardial outgrowth beyond control levels"}, {"measurement": "rescue of the phenotype attributed to Tβ4 knockdown", "setting": "[2]", "result": "failed to rescue any of the phenotype"}]}]}
